In ChEMBL document CHEMBL1201861, “Genomics of Drug Sensitity in Cancer screening data, Wellcome Trust Sanger Institute”:
pIC50: −log10 of the molar value.

Legend:
Assay in all cases: cells
Assay type in all cases: functional, cell-based
Conditions in all cases: Homo sapiens
TE-10 = tested on: TE-10;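 further: growth inhibition of TE-10 cells, measured by a cell viability assay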
Description: SANGER: Inhibition of human TE-10 cell growth in a cell viability assay.

SK-UT-1 = tested on: SK-UT-1;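 further: growth inhibition of SK-UT-1 cells, measured by a cell viability assay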
Description: SANGER: Inhibition of human SK-UT-1 cell growth in a cell viability assay.

HD-MY-Z = tested on: HD-MY-Z;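 further: growth inhibition of HD-MY-Z cells, read out with a cell viability assay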
Description: SANGER: Inhibition of human HD-MY-Z cell growth in a cell viability assay.

GT3TKB = tested on: GT3TKB;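 further: growth inhibition of the cell line, read out with a cell viability assay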
Description: SANGER: Inhibition of human GT3TKB cell growth in a cell viability assay.

MFM-223 = tested on: MFM-223
Description: SANGER: Inhibition of human MFM-223 cell growth in a cell viability assay.

L-428 = tested on: L-428
Description: SANGER: Inhibition of human L-428 cell growth in a cell viability assay.

DMS-114 = tested on: DMS-114
KALS-1 = tested on: KALS-1;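 further: growth inhibition of KALS-1 cells, determined with a cell viability assay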
Description: SANGER: Inhibition of human KALS-1 cell growth in a cell viability assay.

no-10 = tested on: no-10;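 further: growth inhibition of no-10 cells, read out with a cell viability assay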
Description: SANGER: Inhibition of human no-10 cell growth in a cell viability assay.

L-363 = tested on: L-363
Description: SANGER: Inhibition of human L-363 cell growth in a cell viability assay.

CGTH-W-1 = tested on: CGTH-W-1;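 further: growth inhibition of human CGTH-W-1 cells measured by cell viability assay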
Description: SANGER: Inhibition of human CGTH-W-1 cell growth in a cell viability assay.

UACC-257 = tested on: UACC-257
Description: SANGER: Inhibition of human UACC-257 cell growth in a cell viability assay.

K562 = tested on: K562
Description: SANGER: Inhibition of human K-562 cell growth in a cell viability assay.

HCC1187 = tested on: HCC1187;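 further: growth inhibition of HCC1187 cells, read out with a cell viability assay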
Description: SANGER: Inhibition of human HCC1187 cell growth in a cell viability assay.

TE-9 = tested on: TE-9;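 further: cell growth inhibition, measured with a cell viability readout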
Description: SANGER: Inhibition of human TE-9 cell growth in a cell viability assay.

SK-NEP-1 = tested on: SK-NEP-1;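 further: growth inhibition of human SK-NEP-1 cells, read out by a cell viability assay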
Description: SANGER: Inhibition of human SK-NEP-1 cell growth in a cell viability assay.

OCI-AML2 = tested on: OCI-AML2;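 further: growth inhibition of OCI-AML2 cells, read out with a cell viability assay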
Description: SANGER: Inhibition of human OCI-AML2 cell growth in a cell viability assay.

NOS-1 = tested on: NOS-1;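 further: growth inhibition of the human NOS-1 cell line, read out with a cell viability assay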
Description: SANGER: Inhibition of human NOS-1 cell growth in a cell viability assay.

TGBC1TKB = tested on: TGBC1TKB;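 further: growth inhibition of TGBC1TKB cells, read out by a cell viability assay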
Description: SANGER: Inhibition of human TGBC1TKB cell growth in a cell viability assay.

EKVX = tested on: EKVX;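 further: growth inhibition of human EKVX cells, read out with a cell viability assay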
Description: SANGER: Inhibition of human EKVX cell growth in a cell viability assay.

U-266 = tested on: U-266
Description: SANGER: Inhibition of human U-266 cell growth in a cell viability assay.

NCI-H1092 = tested on: NCI-H1092;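 further: cell growth inhibition measured with a cell viability assay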
Description: SANGER: Inhibition of human NCI-H1092 cell growth in a cell viability assay.

NB10 = tested on: NB10;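 further: growth inhibition of NB10 cells, read out by a cell viability assay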
Description: SANGER: Inhibition of human NB10 cell growth in a cell viability assay.

OVCAR-4 = tested on: OVCAR-4;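 further: growth inhibition of human OVCAR-4 cells, measured with a cell viability assay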
Description: SANGER: Inhibition of human OVCAR-4 cell growth in a cell viability assay.

ES3 = tested on: ES3;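 further: growth inhibition of ES3 cells, read out with a cell viability assay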
Description: SANGER: Inhibition of human ES3 cell growth in a cell viability assay.

BB49-HNC = tested on: BB49-HNC;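 further: cell viability assay read-out, reported as inhibition of BB49-HNC cell growth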
Description: SANGER: Inhibition of human BB49-HNC cell growth in a cell viability assay.

HEL = tested on: HEL;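 further: growth inhibition of HEL cells, read out with a cell viability assay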
Description: SANGER: Inhibition of human HEL cell growth in a cell viability assay.

NCI-H747 = tested on: NCI-H747;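 further: growth inhibition of human NCI-H747 cells, read out by a cell viability assay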
Description: SANGER: Inhibition of human NCI-H747 cell growth in a cell viability assay.

LAMA-84 = tested on: LAMA-84;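 further: growth inhibition of LAMA-84 cells, read out with a cell viability assay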
Description: SANGER: Inhibition of human LAMA-84 cell growth in a cell viability assay.

CCRF-CEM = tested on: CCRF-CEM;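 further: inhibition of CCRF-CEM cell growth, measured by a cell viability assay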
Description: SANGER: Inhibition of human CCRF-CEM cell growth in a cell viability assay.

TE-6 = tested on: TE-6;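 further: growth inhibition of TE-6 cells, read out with a cell viability assay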
Description: SANGER: Inhibition of human TE-6 cell growth in a cell viability assay.

MOLT-4 = tested on: MOLT-4;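 further: growth inhibition of MOLT-4 cells, determined with a cell viability readout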
Description: SANGER: Inhibition of human MOLT-4 cell growth in a cell viability assay.

MLMA = tested on: MLMA;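 further: growth inhibition of MLMA cells (human), determined through a cell viability readout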
Description: SANGER: Inhibition of human MLMA cell growth in a cell viability assay.

NCI-H510A = tested on: NCI-H510A;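 further: growth inhibition of NCI-H510A cells, read out with a cell viability assay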
Description: SANGER: Inhibition of human NCI-H510A cell growth in a cell viability assay.

DEL = tested on: DEL;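 further: growth inhibition of the human DEL cell line, read out with a cell viability assay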
Description: SANGER: Inhibition of human DEL cell growth in a cell viability assay.

ES4 = tested on: ES4;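 further: growth inhibition of human ES4 cells, read out by a cell viability assay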
Description: SANGER: Inhibition of human ES4 cell growth in a cell viability assay.

SK-MEL-1 = tested on: SK-MEL-1;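 further: growth inhibition of human SK-MEL-1 cells, read out by a cell viability assay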
Description: SANGER: Inhibition of human SK-MEL-1 cell growth in a cell viability assay.

DJM-1 = tested on: DJM-1;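 further: growth inhibition of human DJM-1 cells, read out by a cell viability assay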
Description: SANGER: Inhibition of human DJM-1 cell growth in a cell viability assay.

TE-5 = tested on: TE-5;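 further: inhibition of cell growth, read out by a cell viability assay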
Description: SANGER: Inhibition of human TE-5 cell growth in a cell viability assay.

LNCaP-Clone-FGC = tested on: LNCaP-Clone-FGC
Description: SANGER: Inhibition of human LNCaP-Clone-FGC cell growth in a cell viability assay.

KINGS-1 = tested on: KINGS-1;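 further: cell viability assay measuring suppression of KINGS-1 cell growth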
Description: SANGER: Inhibition of human KINGS-1 cell growth in a cell viability assay.

ONS-76 = tested on: ONS-76;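 further: growth inhibition of human ONS-76 cells, read out with a cell viability assay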
Description: SANGER: Inhibition of human ONS-76 cell growth in a cell viability assay.

DSH1 = tested on: DSH1;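 further: growth inhibition of human DSH1 cells, measured with a cell viability readout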
Description: SANGER: Inhibition of human DSH1 cell growth in a cell viability assay.

MZ2-MEL = tested on: MZ2-MEL;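 further: growth inhibition of MZ2-MEL cells read out with a cell viability assay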
Description: SANGER: Inhibition of human MZ2-MEL cell growth in a cell viability assay.

COLO-800 = tested on: COLO-800;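 further: growth inhibition of COLO-800 cells, read out with a cell viability assay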
Description: SANGER: Inhibition of human COLO-800 cell growth in a cell viability assay.

A388 = tested on: A388;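 further: growth inhibition of human A388 cells, read out with a cell viability assay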
Description: SANGER: Inhibition of human A388 cell growth in a cell viability assay.

EW-11 = tested on: EW-11;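 further: growth inhibition of human EW-11 cells, measured with a cell viability assay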
Description: SANGER: Inhibition of human EW-11 cell growth in a cell viability assay.

SK-N-DZ = tested on: SK-N-DZ;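 further: growth inhibition of the cancer cell line, read out through a viability assay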
Description: SANGER: Inhibition of human SK-N-DZ cell growth in a cell viability assay.

LB2518-MEL = tested on: LB2518-MEL;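 further: growth inhibition of human LB2518-MEL cells, measured with a cell viability assay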
Description: SANGER: Inhibition of human LB2518-MEL cell growth in a cell viability assay.

SW982 = tested on: SW982;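 further: growth inhibition of SW982 cells, read out with a cell viability assay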
Description: SANGER: Inhibition of human SW982 cell growth in a cell viability assay.

NCI-H446 = tested on: NCI-H446;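 further: growth inhibition of NCI-H446 cells determined by a cell viability assay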
Description: SANGER: Inhibition of human NCI-H446 cell growth in a cell viability assay.

RKO = tested on: RKO;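 further: growth inhibition of human RKO cells, read out with a cell viability assay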
Description: SANGER: Inhibition of human RKO cell growth in a cell viability assay.

KARPAS-45 = tested on: KARPAS-45;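 further: inhibition of cell line growth, read out through a viability assay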
Description: SANGER: Inhibition of human KARPAS-45 cell growth in a cell viability assay.

JVM-3 = tested on: JVM-3;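 further: growth inhibition of human JVM-3 cells, read out with a cell viability assay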
Description: SANGER: Inhibition of human JVM-3 cell growth in a cell viability assay.

HH = tested on: HH
Description: SANGER: Inhibition of human HH cell growth in a cell viability assay.

NCI-H1304 = tested on: NCI-H1304;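 further: growth inhibition of the cancer cell line, measured in a cell viability assay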
Description: SANGER: Inhibition of human NCI-H1304 cell growth in a cell viability assay.

NCI-H82 = tested on: NCI-H82;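 further: growth inhibition of NCI-H82 cells, measured with a cell viability readout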
Description: SANGER: Inhibition of human NCI-H82 cell growth in a cell viability assay.

HAL-01 = tested on: HAL-01
Description: SANGER: Inhibition of human HAL-01 cell growth in a cell viability assay.

COLO-824 = tested on: COLO-824
Description: SANGER: Inhibition of human COLO-824 cell growth in a cell viability assay.

KP-N-YS = tested on: KP-N-YS
Description: SANGER: Inhibition of human KP-N-YS cell growth in a cell viability assay.

RCC10RGB = tested on: RCC10RGB
Description: SANGER: Inhibition of human RCC10RGB cell growth in a cell viability assay.

COLO-320-HSR = tested on: COLO-320-HSR
Description: SANGER: Inhibition of human COLO-320-HSR cell growth in a cell viability assay.

A101D = tested on: A101D
Description: SANGER: Inhibition of human A101D cell growth in a cell viability assay.

EW-13 = tested on: EW-13
Description: SANGER: Inhibition of human EW-13 cell growth in a cell viability assay.

HT = tested on: HT
Description: SANGER: Inhibition of human HT cell growth in a cell viability assay.

**Q.** What does the source list for `Cc1n[nH]c2ccc(-c3cncc(OC[C@@H](N)Cc4c[nH]c5ccccc45)c3)cc12` [A-443654]?
**A.** pIC50 (TE-10): 7.05; pIC50 (SK-UT-1): 7.09; pIC50 (HD-MY-Z): < 5.99; pIC50 (GT3TKB): < 5.99; pIC50 (MFM-223): < 5.99; pIC50 (L-428): < 5.99; pIC50 (DMS-114): 6.01; pIC50 (KALS-1): 6.69; pIC50 (no-10): 6.89; pIC50 (L-363): 6.81; pIC50 (CGTH-W-1): 6.61; pIC50 (UACC-257): < 5.99; pIC50 (K562): 6.41; pIC50 (HCC1187): < 5.99; pIC50 (TE-9): 6.41; pIC50 (SK-NEP-1): 6.29; pIC50 (OCI-AML2): 6.68; pIC50 (NOS-1): 7.03; pIC50 (TGBC1TKB): 6.92; pIC50 (EKVX): < 5.99; pIC50 (U-266): < 5.99; pIC50 (NCI-H1092): 6.03; pIC50 (NB10): < 5.99; pIC50 (OVCAR-4): 6.61; pIC50 (ES3): < 5.99; pIC50 (BB49-HNC): < 5.99; pIC50 (HEL): 6.37; pIC50 (NCI-H747): 7.08; pIC50 (LAMA-84): 6.21; pIC50 (CCRF-CEM): 6.84; pIC50 (TE-6): 6.07; pIC50 (MOLT-4): 6.88; pIC50 (MLMA): 6.35; pIC50 (NCI-H510A): 6.64; pIC50 (DEL): 6.64; pIC50 (ES4): 7.42; pIC50 (SK-MEL-1): < 5.99; pIC50 (DJM-1): 6.48; pIC50 (TE-5): 6.77; pIC50 (LNCaP-Clone-FGC): < 5.99; pIC50 (KINGS-1): 6.53; pIC50 (ONS-76): 6.35; pIC50 (DSH1): 6.44; pIC50 (MZ2-MEL): < 5.99; pIC50 (COLO-800): < 5.99; pIC50 (A388): 7.07; pIC50 (EW-11): < 5.99; pIC50 (SK-N-DZ): < 5.99; pIC50 (LB2518-MEL): 6.40; pIC50 (SW982): 6.78; pIC50 (NCI-H446): 6.40; pIC50 (RKO): 6.87; pIC50 (KARPAS-45): 6.53; pIC50 (JVM-3): < 5.99; pIC50 (HH): 6.65; pIC50 (NCI-H1304): 6.79; pIC50 (NCI-H82): 6.78; pIC50 (HAL-01): < 5.99; pIC50 (COLO-824): < 5.99; pIC50 (KP-N-YS): < 5.99; pIC50 (RCC10RGB): < 5.99; pIC50 (COLO-320-HSR): 6.03; pIC50 (A101D): 6.88; pIC50 (EW-13): < 5.99; pIC50 (HT): 6.43

**Q.** How did the pIC50 (TE-10) turn out when `Cc1nc(Nc2ncc(C(=O)Nc3c(C)cccc3Cl)s2)cc(N2CCN(CCO)CC2)n1` [DASATINIB] was run?
**A.** 7.20

**Q.** And the pIC50 (SK-UT-1)?
**A.** < 5.89

**Q.** What about the pIC50 (HD-MY-Z) of the same molecule?
**A.** < 5.89

**Q.** What about the pIC50 (GT3TKB) of the same molecule?
**A.** < 5.89

**Q.** What about the pIC50 (MFM-223) of the same molecule?
**A.** < 5.89

**Q.** And the pIC50 (L-428)?
**A.** < 5.89

**Q.** And the pIC50 (DMS-114)?
**A.** < 5.89

**Q.** And the pIC50 (KALS-1)?
**A.** 7.02

**Q.** And the pIC50 (no-10)?
**A.** 6.50

**Q.** And the pIC50 (L-363)?
**A.** < 5.89

**Q.** What about the pIC50 (CGTH-W-1) of the same molecule?
**A.** 7.45

**Q.** And the pIC50 (UACC-257)?
**A.** < 5.89

**Q.** And the pIC50 (K562)?
**A.** > 8.30

**Q.** What about the pIC50 (HCC1187) of the same molecule?
**A.** < 5.89

**Q.** What about the pIC50 (TE-9) of the same molecule?
**A.** 6.06

**Q.** What about the pIC50 (SK-NEP-1) of the same molecule?
**A.** < 5.89

**Q.** What about the pIC50 (OCI-AML2) of the same molecule?
**A.** < 5.89

**Q.** And the pIC50 (NOS-1)?
**A.** 8.21

**Q.** What about the pIC50 (TGBC1TKB) of the same molecule?
**A.** 7.21

**Q.** And the pIC50 (EKVX)?
**A.** < 5.89

**Q.** What about the pIC50 (U-266) of the same molecule?
**A.** < 5.89

**Q.** What about the pIC50 (NCI-H1092) of the same molecule?
**A.** < 5.89

**Q.** And the pIC50 (NB10)?
**A.** < 5.89

**Q.** And the pIC50 (OVCAR-4)?
**A.** 6.43

**Q.** And the pIC50 (ES3)?
**A.** < 5.89

**Q.** What about the pIC50 (BB49-HNC) of the same molecule?
**A.** 6.41

**Q.** And the pIC50 (HEL)?
**A.** < 5.89

**Q.** What about the pIC50 (NCI-H747) of the same molecule?
**A.** 7.08

**Q.** And the pIC50 (LAMA-84)?
**A.** > 8.30

**Q.** And the pIC50 (CCRF-CEM)?
**A.** < 5.89

**Q.** What about the pIC50 (TE-6) of the same molecule?
**A.** 5.92

**Q.** And the pIC50 (MOLT-4)?
**A.** < 5.89

**Q.** What about the pIC50 (MLMA) of the same molecule?
**A.** 6.85

**Q.** What about the pIC50 (NCI-H510A) of the same molecule?
**A.** < 5.89

**Q.** And the pIC50 (DEL)?
**A.** < 5.89

**Q.** And the pIC50 (ES4)?
**A.** 5.98

**Q.** What about the pIC50 (SK-MEL-1) of the same molecule?
**A.** < 5.89

**Q.** What about the pIC50 (DJM-1) of the same molecule?
**A.** < 5.89

**Q.** What about the pIC50 (TE-5) of the same molecule?
**A.** < 5.89

**Q.** What about the pIC50 (LNCaP-Clone-FGC) of the same molecule?
**A.** < 5.89

**Q.** What about the pIC50 (KINGS-1) of the same molecule?
**A.** 6.78

**Q.** And the pIC50 (ONS-76)?
**A.** 6.37

**Q.** What about the pIC50 (DSH1) of the same molecule?
**A.** 6.62

**Q.** And the pIC50 (MZ2-MEL)?
**A.** 6.54

**Q.** What about the pIC50 (COLO-800) of the same molecule?
**A.** < 5.89

**Q.** And the pIC50 (A388)?
**A.** 7.29

**Q.** And the pIC50 (EW-11)?
**A.** < 5.89

**Q.** What about the pIC50 (SK-N-DZ) of the same molecule?
**A.** < 5.89

**Q.** And the pIC50 (LB2518-MEL)?
**A.** 6.85

**Q.** And the pIC50 (SW982)?
**A.** 7.95

**Q.** And the pIC50 (NCI-H446)?
**A.** 6.20

**Q.** What about the pIC50 (RKO) of the same molecule?
**A.** 6.28

**Q.** What about the pIC50 (KARPAS-45) of the same molecule?
**A.** < 5.89

**Q.** What about the pIC50 (JVM-3) of the same molecule?
**A.** < 5.89

**Q.** What about the pIC50 (HH) of the same molecule?
**A.** < 5.89

**Q.** What about the pIC50 (NCI-H1304) of the same molecule?
**A.** < 5.89

**Q.** And the pIC50 (NCI-H82)?
**A.** < 5.89

**Q.** And the pIC50 (HAL-01)?
**A.** < 5.89

**Q.** What about the pIC50 (COLO-824) of the same molecule?
**A.** < 5.89

**Q.** What about the pIC50 (KP-N-YS) of the same molecule?
**A.** < 5.89

**Q.** What about the pIC50 (RCC10RGB) of the same molecule?
**A.** 6.31

**Q.** What about the pIC50 (COLO-320-HSR) of the same molecule?
**A.** < 5.89

**Q.** What about the pIC50 (A101D) of the same molecule?
**A.** 5.99

**Q.** What about the pIC50 (EW-13) of the same molecule?
**A.** < 5.89

**Q.** And the pIC50 (HT)?
**A.** < 5.89
